Where two headings read alike, the source gives them in different places.
Legend:
Type in all cases: cell-based, mouse
B16-F10 cells [1] = assay: In vitro efficacy comparison: melanin content, α-MSH 0.5 h then test article 30 h (Example 5); conditions: TA 918.27 μM; α-MSH 0.5 h then TA 30 h
Experimental: B16-F10 cells were seeded in a 96-well plate. Except the vehicle group, cells of the other groups were cultured in the presence of α-MSH for 0.5 hours first. The compositions for examination were then added to the culture medium and the cells were further cultured for 30 hours. The rest of the experimental conditions and procedures were similar to those described in Example 3. Afterwards, the cells were collected to evaluate the effect of 4-[(E)-2-(3,5-dihydroxyphenyl)ethenyl]benzene-1,3-diol compositions (IM01 Group) and Arbutin and 5-[(E)-2-(4-hydroxyphenyl)ethenyl]benzene-1,3-diol (IM00 Group) compositions on reducing melanin levels. The experimental design is summarized in Table 18 and results shown in both Table 18 and FIG. 5.

B16-F10 cells [2] = assay: In vitro melanin content versus arbutin and hydroquinone (Example 6)
Experimental: Except the vehicle group, cells of the other groups were cultured with α-MSH for 24 hours first. The compositions for investigation (see Tables 19 and 20) were then added to the culture medium and the cells were further cultured for 24 hours. The rest of the experimental operation process was similar to that described in Example 3. […] [table] [table]

B16-F10 cell line [3] = conditions: for Relative cell viability (%): mouse
From the text: (§1) Table 23 below lists the study design for evaluating EC50 values of IM01, which contains 4-[(E)-2-(3,5-dihydroxyphenyl)ethenyl]benzene-1,3-diol.
(§2) Table 25 below lists the study design for evaluating EC50 values of IM01, which contains 4-[(E)-2-(3,5-dihydroxyphenyl)ethenyl]benzene-1,3-diol.

B16-F10 cell line [4] = assay: In vitro whitening efficacy: melanin content (Example 7); conditions: Table 26
From the text: as §1, §2

Row | Compound | Melanin content (%) Mean (B16-F10 cells [1]) [%] | Melanin content (%) Mean ± SD (B16-F10 cells [2]; TA 450 μM, Table 21 experiment) [%] | Melanin content (%) Mean ± SD (B16-F10 cells [2]; TA 900 μM, Table 21 experiment) [%] | Melanin content (%) Mean ± SD (B16-F10 cells [2]; TA 900 μM, Table 22 experiment) [%] | Melanin content (%) Mean ± SD (B16-F10 cells [2]; TA 1800 μM, Table 22 experiment) [%] | Relative cell viability (%) (B16-F10 cell line [3]; 450 μM) | Relative cell viability (%) (B16-F10 cell line [3]; 900 μM) | Melanin content (%) (B16-F10 cell line [4]; TA 450 μM (Arbutin/L)) | Melanin content (%) (B16-F10 cell line [4]; TA 900 μM (Arbutin/H)) | Melanin content (%) Mean ± SD (B16-F10 cells [2]; TA 120 μM, Table 21 experiment) [%] | Cytotoxicity (B16-F10 cell line [3]) | Relative cell viability (%) (B16-F10 cell line [3]; 60 μM) | Melanin content (%) (B16-F10 cell line [4]; TA 60 μM (/L of IM01 and HQ), HQ vehicle DDW) | Melanin content (%) (B16-F10 cell line [4]; TA 120 μM (/H of IM01 and HQ), HQ vehicle DDW)
1 | OC[C@H]1O[C@@H](Oc2ccc(O)cc2)[C@H](O)[C@@H](O)[C@@H]1O [Arbutin, reference compound] | 95.8 | 76.1 ± 6.3 | 60.9 ± 4.5 | 62.8 ± 1.8 | 47.1 ± 0.3 | 100.8 ± 1.2 | 93.7 ± 1.6 | 78.5 ± 1.1 | 67.0 ± 2.8 | – | – | – | – | –
2 | Oc1ccc(O)cc1 [Hydroquinone, hydroquinone, reference compound] | – | – | – | – | – | – | – | – | – | 61.5 ± 4.6 | high cytotoxicity | 88.2 ± 6.0 | 34.6 ± 2.8 | 40.5 ± 3.7

From patent publication US20250017874A1, “PHARMACEUTICAL COMPOSITIONS FOR USE IN REDUCING HYPERPIGMENTATION” (Caliway Biopharmaceuticals Co., Ltd., priority 2023, published 2025)
